We go through 21 molecules from ChEMBL document CHEMBL1122478, “Tricyclic triarylethylene antiestrogens: dibenz[b,f]oxepins, dibenzo[b,f]thiepins, dibenzo[a,e]cyclooctenes, and dibenzo[b,f]thiocins” (1983).

Format in all cases: functional
For assay [1], the species on record is Rattus norvegicus. Description: Minimum fully effective dose that prevented implantation of eggs in three out of three rats (MFED) (antifertility).
For assay [2], the system named is Mus musculus. Description: Sedative activity measured after ip administration to female mice and checked for their horizontal movement at a dose of 5 mg/Kg.
Assay [3] relates to Mus musculus. The experiment in a line: Sedative activity measured after ip administration to female mice and checked for their horizontal movement at a dose of 1 mg/Kg.
Assay [4] deals with Mus musculus. Description: Sedative activity measured after ip administration to female mice and checked for their horizontal movement at a dose of 10 mg/Kg.
The species entered for assay [5] is Rattus norvegicus. The experiment in a line: Dose prevented implantation in two out of 3 rats.
The species entered for assay [6] is Rattus norvegicus. Description: Dose prevented implantation in two out of three rats.
The species entered for assay [7] is Rattus norvegicus. Description: Dose prevented implantation in two out of 3 rats;.

In the case of `C=CCOc1ccc2c(c1)Oc1ccccc1C(CC)=C2c1ccc(O)cc1`, in the assay listed under Rattus norvegicus [1], the MFED is >25 mg/kg. In the assay on Mus musculus [2], `CC/C1=C(\c2ccc(O)cc2)c2ccc(OCC(O)CO)cc2SCc2ccccc21` (centres undefined) yielded a Reduction in movement of 62%. Further, the MFED in the assay listed under Rattus norvegicus [1] is 5 mg/kg.

On to `CCC1=C(c2ccccc2)c2ccc(O)cc2Sc2ccccc21`, for which the results for the Reduction in movement in the assay on Mus musculus [3], in the assay on Mus musculus [4] and in the assay with Mus musculus [2] were 34%, 72% and 60%, respectively. For the same molecule, the MFED in the assay listed under Rattus norvegicus [1] is >5 mg/kg.

As for `CCC1=C(c2ccccc2)c2ccc(OCC(O)CO)cc2Oc2ccccc21` (centres undefined), the MFED in the assay listed under Rattus norvegicus [1] is 10 mg/kg.

In the case of `C=CCOc1ccc2c(c1)SCc1ccccc1/C(CC)=C\2c1ccccc1`, the MFED in the assay filed under Rattus norvegicus [1] worked out at 5 mg/kg. As to `C=CCOc1ccc2c(c1)SCc1ccccc1/C(CC)=C\2c1ccc(O)cc1`, the MFED in the assay filed under Rattus norvegicus [1] was 25 mg/kg. Also, the Dose in the assay filed under Rattus norvegicus [5] was ~10 mg/kg. Take `CCC1=C(c2ccc(O)cc2)c2ccc(OCC(O)CO)cc2Oc2ccccc21` (centres undefined): the Reduction in movement in the assay on Mus musculus [2] was found to be 61%. The MFED in the assay listed under Rattus norvegicus [1] turned out to be 25 mg/kg. The Dose in the assay filed under Rattus norvegicus [5] stood at 10 mg/kg. `CC/C1=C(\c2ccccc2)c2ccc(OCCN(C)C)cc2SCc2ccccc21`: the MFED in the assay listed under Rattus norvegicus [1] was 0.5 mg/kg.

As for `CCC1=C(c2ccc(O)cc2)c2ccc(OCCN(C)C)cc2Sc2ccccc21`, the Reduction in movement in the assay with Mus musculus [4] turned out to be 45%. The same molecule showed an MFED in the assay listed under Rattus norvegicus [1] of 0.5 mg/kg. The molecule `CCC1=C(c2ccc(O)cc2)c2ccc(OCCN(C)C)cc2Oc2ccccc21` returned a Reduction in movement in the assay with Mus musculus [2] of 70%. Besides, the MFED in the assay filed under Rattus norvegicus [1] was determined as 10 mg/kg.

Molecule `CC/C(=C(\c1ccccc1)c1ccc(OCCN(C)C)cc1)c1ccccc1` [TAMOXIFEN] gave an MFED in the assay listed under Rattus norvegicus [1] of 0.1 mg/kg. Same read-out and setting: then `C=CCOc1ccc2c(c1)Oc1ccccc1C(CC)=C2c1ccccc1`, with >25 mg/kg. The molecule `CCC1=C(c2ccccc2)c2ccc(OCCN(C)C)cc2Oc2ccccc21` came in with an MFED in the assay listed under Rattus norvegicus [1] of 25 mg/kg. In addition, the Dose in the assay filed under Rattus norvegicus [6] was ~10 mg/kg.

Turning to `CCC1=C(c2ccccc2)c2ccc(OCC(O)CO)cc2Sc2ccccc21` (centres undefined), the figures for the Reduction in movement with Mus musculus [3] and with Mus musculus [2] were 33% and 84%, respectively. The Dose in the assay filed under Rattus norvegicus [5] was ~25 mg/kg. Consider `C=CCOc1ccc2c(c1)Sc1ccccc1C(CC)=C2c1ccccc1`, for which the figures for the Reduction in movement with Mus musculus [3] and with Mus musculus [2] were 48% and 76%, respectively. In addition, the MFED in the assay filed under Rattus norvegicus [1] was >25 mg/kg. Molecule `CC/C1=C(\c2ccccc2)c2ccc(OCC(O)CO)cc2SCc2ccccc21` (centres undefined) gave a Dose in the assay filed under Rattus norvegicus [7] of 5 mg/kg.

In the assay listed under Rattus norvegicus [1], `C=CCOc1ccc2c(c1)Sc1ccccc1C(CC)=C2c1ccc(O)cc1` returned an MFED of 5 mg/kg. `CC/C1=C(\c2ccc(O)cc2)c2ccc(OCCN(C)C)cc2SCc2ccccc21` had a Reduction in movement in the assay on Mus musculus [2] of 61%. The same molecule had an MFED in the assay listed under Rattus norvegicus [1] of 0.5 mg/kg.

For the molecule `CN(C)CCCN1c2ccccc2Sc2ccc(Cl)cc21` [CHLORPROMAZINE], in the assay with Mus musculus [3], the Reduction in movement turned out to be 73%. With `CCC1=C(c2ccccc2)c2ccc(OCCN(C)C)cc2Sc2ccccc21`, the Reduction in movement in the assay on Mus musculus [3] stood at 49%; in the assay with Mus musculus [4], 46%. Also, the MFED in the assay listed under Rattus norvegicus [1] was determined as 5 mg/kg. For the same molecule, in the assay listed under Rattus norvegicus [5], the Dose is ~1 mg/kg. `CCC1=C(c2ccc(O)cc2)c2ccc(OCC(O)CO)cc2Sc2ccccc21` (centres undefined) gave an MFED in the assay listed under Rattus norvegicus [1] of 5 mg/kg.
